From PMC9419673 (Nanoscale Advances, 2021)

Experiments:
[1] = Solubility in aqueous buffer; format: physicochemical; details: pH 7.4, aqueous buffer
[2] = Analytical RP-HPLC retention as a measure of hydrophobicity; format: physicochemical; details: longer retention time compared to native EETI-II, Fig. 1

- solubility [1]: > 500 µM
- hydrophobicity by analytical RP-HPLC retention time (in words) [2]: more hydrophobic than EETI-II (CKP)
Structure (SMILES): CCCCCCCCCCCCCCCC(=O)NCCCC[C@H](N)C(=O)NCC(=O)N[C@@H](CO)C(=O)NCC(=O)N[C@@H](CO)C(=O)NCC(=O)N[C@H]1CSSC[C@@H]2NC(=O)CNC(=O)[C@H](C)NC(=O)[C@H](CC(C)C)NC(=O)[C@@H]3CSSC[C@@H](C(=O)NCC(=O)O)NC(=O)[C@H](Cc4ccccc4)NC(=O)CNC(=O)[C@H](CC(N)=O)NC(=O)[C@@H]4CCCN4C(=O)CNC(=O)[C@H](CSSC[C@H](NC(=O)[C@H](CCCNC(=N)N)NC(=O)[C@H](CCSC)NC(=O)[C@H](CC(C)C)NC(=O)[C@H]([C@@H](C)CC)NC(=O)[C@H](CCCNC(=N)N)NC(=O)[C@@H]4CCCN4C1=O)C(=O)N[C@@H](CCCCN)C(=O)N[C@@H](CCC(N)=O)C(=O)N[C@@H](CC(=O)O)C(=O)N[C@@H](CO)C(=O)N[C@@H](CC(=O)O)C(=O)N3)NC(=O)[C@H](C(C)C)NC2=O [CKP-C16, EETI-II-C16]
